These results are taken from patent US20250282817A1, “COMPOUNDS FOR DELIVERING GLUTATHIONE TO A TARGET AND METHODS OF MAKING AND USING THE SAME” (priority 2016, published 2025).

The subject of one data set is cells. Description: Oxygen consumption rate (OCR) after 3HP-dependent GSH loss (FIG. 6). Format: cell-based.
Data set [1] can be described thus: Menadione toxicity to hepatocytes from young and old rats (percent viability, LC50). Format: cell-based, rat. Conditions: rat. An excerpt: (§1) Hepatocytes isolated from an old rat have 60% less mitochondrial GSH than that seen in young adult animals. In this example, menadione was used as a redox cycler, to stress mitochondria in hepatocytes, as GSH-dependent mechanisms can be involved its detoxification. […] The increased vulnerability to menadione has been linked to the loss of GSH resulting from the decline in GSH synthesis capacity.
(§2) Menadione treatment alone served as the positive control.

A further data set has as its system hepatocytes. Described as above. Format: cell-based, rat.
Excerpt: as §1, §2

Data set [2] deals with hepatocytes from aged rats. Conditions: triphenylphosphonium alone. The method, then: Menadione treatment alone served as the positive control. Viability in untreated hepatocytes also was measured over two hours.
The next data set relates to mice. Description: Effect of mitoGSH in animals: i.p. injection of TPP-GSSG, 48 hour observation, liver chemistry profile. Format: in vivo. Conditions: 3.8 mg/kg i.p. The method, then: Three seven-month-old female non-transgenic mice (approximately 30 g each) were injected i.p. with 3.8 mg/kg TPP-GSSG in 100 μL/mouse. TPP-GSSG was initially solubilized in DMF and later diluted in millipure water to 5.3% (v/v) dimethylformamide for injection. […] All mice gained weight (0.1 g-2.3 g) over the 48 hour period. Blood was collected via brachial cut, spun down to collect plasma and then delivered to OSU Veterinary Diagnostic Laboratory for a small animal liver chemistry profile.

Turning to `C=CC(O)CC(=O)O` (stereo not drawn) [3HP, 3-hydroxy-4-pentenoate], the “basal respiration, ATP turnover, proton leak, non-mitochondrial respiration (OCR)” value in the data set on cells (3HP-dependent GSH loss) was “does not alter”. For the same molecule, the “respiratory capacity (OCR)” value in the data set with cells (higher levels of 3HP treatment) is reported as “increasingly lost”.

For `CC1=CC(=O)c2ccccc2C1=O` [menadione], the CC50 (commonly the concentration at which the toxic effect on the cells reaches its halfway point) in data set [1] (isolated hepatocytes from old rats, hepatocytes from old rats) is 300 µM; in data set [1] (isolated hepatocytes from young rats, hepatocytes from young rats), roughly 500 µM; in the data set on hepatocytes (hepatocytes from old rats) it was 232 µM; in the data set on hepatocytes (hepatocytes from young rats) it was 401 µM.

As for Triphenylphosphonium, the “effect on hepatocyte viability” value in data set [2] is given as “did not affect viability”.

As to “Triphenylphosphonium glutathione disulfide tetraethyl ester [TPP-GSSG]”, the “health and activity of mice” value with mice (48 hours, female non-transgenic mice) was “no detrimental effects observed”. For the same molecule, the “small animal liver chemistry profile (plasma)” value in the data set with mice (after 48 hours) is given as “No liver damage or abnormalities were detected”.
